In US10428055B2, “Substituted piperidines having GPR119 agonistic activity” (DONG-A ST CO., LTD., priority 2014, dated 2019) one finds Emax data, which are given here for 23 compounds.

This test addresses T1, Human GPR119 (Homo sapiens, UniProt Q8TDV5).
T1 construct: host or cells: HEK293 (ATCC)
T1 sequence (Q8TDV5 1-335): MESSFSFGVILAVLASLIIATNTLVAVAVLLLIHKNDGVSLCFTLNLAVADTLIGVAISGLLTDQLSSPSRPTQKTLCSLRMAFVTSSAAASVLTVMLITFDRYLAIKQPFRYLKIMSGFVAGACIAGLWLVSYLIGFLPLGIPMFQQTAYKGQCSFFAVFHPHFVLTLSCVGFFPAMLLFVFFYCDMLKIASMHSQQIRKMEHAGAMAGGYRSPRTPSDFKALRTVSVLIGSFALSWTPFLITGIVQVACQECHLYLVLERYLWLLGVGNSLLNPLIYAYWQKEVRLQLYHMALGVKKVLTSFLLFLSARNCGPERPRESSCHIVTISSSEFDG
In words: Human GPR119 activation assay (cAMP, HTRF). Type of test: cell-based. The conditions noted are these: 1 h, HEK293 cells transiently expressing human GPR119, relative to maximum effect of OEA, read-out: hGPR119 activation ability (cAMP assay) Relative Response % vs OEA; for Emax at 0.001 µM: 1 nM; for Emax at 0.01 µM: 10 nM. The source says:
<Experimental Example 1>Human GPR119 activation assay
Human GPR119 was temporarily expressed on cells, thereby quantifying the amount of cyclic adenosine 3′,5′-monophosphate (cAMP) increased upon activating GPR119 by the compound of the present invention, using the product from Cysbio, by a method of HTRF (homogeneous time resolved fluorescence), and such quantification was used to refer to efficacy on GPR119 activation.
Human GPR119 expression vector (Origene) was overexpressed in […] renal epithelial cells (HEK293) (ATCC), and the cells were stabilized for 48 hours. With a solution of 11.1 mM glucose, 0.1% bovine serum albumin, and 0.5 mM IBMX (3-isobutyl-1-methylxanthine) which is a phosphodiesterase inhibitor being added to a KRBH (Krebs-Ringer Bicarbonate HEPES; Hou ZQ. et al., Mol Cell Endocrinol, 2008(291):71-78) buffer, the cells were pre-treated for 10 minutes. Thereafter, the cells were treated with the same solution containing a drug for 60 minutes, then the supernatant was removed, and the increase in cAMP in cells was quantified using a Cysbio cAMP HiRange kit.
As to the maximum efficacy of compounds tested, multiple concentration assessment for the compounds of the present invention was carried out, thereby assessing the relative activation level (%) to the maximum effect of oleoylethanolamide (OEA), an endogenous ligand of GPR119.

`Cc1nnc(-c2c(F)cc(OCCCC3CCN(c4nc(CC(F)(F)F)no4)CC3)cc2F)o1` [Example 58, 5-(4-(3-(3,5-difluoro-4-(5-methyl-1,3,4-oxadiazol-2-yl)phenoxy)propyl)piperidin-1-yl)-3-(2,2,2-trifluoroethyl)-1,2,4-oxadiazole]: the Emax at 0.001 µM is 699%.

With `CC(C)c1noc(N2CCC(CCCOc3cc(F)c(C4=N[C@H](C)CO4)c(F)c3)CC2)n1` [Example 10, (R)-5-(4-(3-(3,5-difluoro-4-(4-methyl-4,5-dihydrooxazol-2-yl)phenoxy)propyl)piperidin-1-yl)-3-isopropyl-1,2,4-oxadiazole], the Emax at 0.001 µM was determined as 192% and the Emax at 0.01 µM came out at 266%.

For `CCc1cnc(N2CCC(CCCOc3cc(F)c(C4=NCC(C)(C)O4)c(F)c3)CC2)nc1` [Example 6, 2-(4-(3-(1-(5-ethylpyrimidin-2-yl)piperidin-4-yl)propoxy)-2,6-difluorophenyl)-5,5-dimethyl-4,5-dihydrooxazole], the Emax at 0.001 µM amounted to 33.5% and the Emax at 0.01 µM was 102%.

Take `COc1cnc(N2CCC(CCCOc3cc(F)c(-c4noc(C(C)C)n4)c(F)c3)CC2)nc1` [Example 26, 3-(2,6-difluoro-4-(3-(1-(5-methoxypyrimidin-2-yl)piperidin-4-yl)propoxy)phenyl)-5-isopropyl-1,2,4-oxadiazole]: the Emax at 0.001 µM was found to be 67.8% and the Emax at 0.01 µM turned out to be 165%.

Turning to `CC(C)c1nc(N2CCC(CCCOc3cc(F)c(-c4nnc(C(C)C)o4)c(F)c3)CC2)no1` [Example 59, 3-(4-(3-(3,5-difluoro-4-(5-isopropyl-1,3,4-oxadiazol-2-yl)phenoxy)propyl)piperidin-1-yl)-5-isopropyl-1,2,4-oxadiazole], the Emax at 0.001 µM is 140% and the Emax at 0.01 µM was found to be 329%.

Turning to `COCc1nc(-c2c(F)cc(OCCCC3CCN(c4ncc(-c5noc(CC(C)C)n5)cn4)CC3)cc2F)no1` [Example 34, 3-(2,6-difluoro-4-(3-(1-(5-(5-isobutyl-1,2,4-oxadiazol-3-yl)pyrimidin-2-yl)piperidin-4-yl)propoxy)phenyl)-5-(methoxymethyl)-1,2,4-oxadiazole], the Emax at 0.001 µM is 82.1% and the Emax at 0.01 µM amounted to 134%.

On to `CCc1cnc(N2CCC(CCCOc3cc(F)c(-c4nc(CC)cs4)c(F)c3)CC2)nc1` [Example 66, 4-ethyl-2-(4-(3-(1-(5-ethylpyrimidin-2-yl)piperidin-4-yl)propoxy)-2,6-difluorophenyl) thiazole], for which the Emax at 0.001 µM was 95.6% and the Emax at 0.01 µM was 120%.

Consider `CCc1cnc(N2CCC(CCCOc3cc(F)c(C4=NCCO4)c(F)c3)CC2)nc1` [Example 1, 2-(4-(3-(1-(5-ethylpyrimidin-2-yl)piperidin-4-yl)propoxy)-2,6-difluorophenyl)-4,5-dihydrooxazole], for which the Emax at 0.001 µM is 50.7% and the Emax at 0.01 µM was 116%.

Consider `CC(C)Cc1nc(-c2cnc(N3CCC(CCCOc4cc(F)c(C5=NC[C@@H](C)O5)c(F)c4)CC3)nc2)no1` [Example 9, (R)-3-(2-(4-(3-(3,5-difluoro-4-(5-methyl-4,5-dihydrooxazol-2-yl)phenoxy)propyl)piperidin-1-yl)pyrimidin-5-yl)-5-isobuty-1,2,4-oxadiazole], for which the Emax at 0.001 µM is 97.1% and the Emax at 0.01 µM was 241%.

With `Cc1nnc(-c2c(F)cc(OCCCC3CCN(c4cnc(Cl)cn4)CC3)cc2F)o1` [Example 49, 2-(4-(3-(1-(5-chloropyrazin-2-yl)piperidin-4-yl)propoxy)-2,6-difluorophenyl)-5-methyl-1,3,4-oxadiazole], the Emax at 0.001 µM is 83.4% and the Emax at 0.01 µM was found to be 121%.

In the case of `CC(C)c1nnc(-c2c(F)cc(OCCCC3CCN(c4ncc(C(F)(F)F)cn4)CC3)cc2F)s1` [Example 64, 2-(2,6-difluoro-4-(3-(1-(5-(trifluoromethyl)pyrimidin-2-yl)piperidin-4-yl)propoxy)phenyl)-5-isopropyl-1,3,4-thiadiazole], the Emax at 0.001 µM came out at 77% and the Emax at 0.01 µM came to 179%.

As for `CCc1cnc(N2CCC(CCCOc3cc(F)c(-c4nnc(C(C)C)s4)c(F)c3)CC2)nc1` [Example 60, 2-(4-(3-(1-(5-ethylpyrimidin-2-yl)piperidin-4-yl)propoxy)-2,6-difluorophenyl)-5-isopropyl-1,3,4-thiadiazole], the Emax at 0.001 µM turned out to be 285% and the Emax at 0.01 µM is 516%.

As for `CC[C@H](O)c1nc(-c2c(F)cc(OCCCC3CCN(c4ncc(-c5noc(CC(C)C)n5)cn4)CC3)cc2F)no1` [Example 35, (S)-1-(3-(2,6-difluoro-4-(3-(1-(5-(5-isobutyl-1,2,4-oxadiazol-3-yl)pyrimidin-2-yl)piperidin-4-yl)propoxy)phenyl)-1,2,4-oxadiazol-5-yl) propan-1-ol], the Emax at 0.001 µM was found to be 52.5% and the Emax at 0.01 µM stood at 118%.

As to `CC(C)Cc1nc(-c2cnc(N3CCC(CCCOc4cc(F)c(-c5noc(C(C)C)n5)c(F)c4)CC3)nc2)no1` [Example 32, 3-(2,6-difluoro-4-(3-(1-(5-(5-isobutyl-1,2,4-oxadiazol-3-yl)pyrimidin-2-yl)piperidin-4-yl)propoxy)phenyl)-5-isopropyl-1,2,4-oxadiazole], the Emax at 0.001 µM turned out to be 201% and the Emax at 0.01 µM turned out to be 288%.

Regarding `CCc1nc(-c2c(F)cc(OCCCC3CCN(c4ncc(-c5noc(CC(C)C)n5)cn4)CC3)cc2F)no1` [Example 31, 3-(2,6-difluoro-4-(3-(1-(5-(5-isobutyl-1,2,4-oxadiazol-3-yl)pyrimidin-2-yl)piperidin-4-yl)propoxy)phenyl)-5-ethyl-1,2,4-oxadiazole], the Emax at 0.001 µM worked out at 59.4% and the Emax at 0.01 µM stood at 116%.

Take `CC(C)Oc1cnc(N2CCC(CCCOc3cc(F)c(-c4noc(C(C)C)n4)c(F)c3)CC2)nc1` [Example 27, 3-(2,6-difluoro-4-(3-(1-(5-isopropoxypyrimidin-2-yl)piperidin-4-yl)propoxy)phenyl)-5-isopropyl-1,2,4-oxadiazole]: the Emax at 0.001 µM turned out to be 9.4% and the Emax at 0.01 µM turned out to be 123%.

`CCC(C)c1nc(-c2c(F)cc(OCCCC3CCN(c4ncc(-c5noc(CC(C)C)n5)cn4)CC3)cc2F)no1` (stereo not drawn) [Example 33, 5-(sec-butyl)-3-(2,6-difluoro-4-(3-(1-(5-(5-isobutyl-1,2,4-oxadiazol-3-yl)pyrimidin-2-yl)piperidin-4-yl)propoxy)phenyl)-1,2,4-oxadiazole]: the Emax at 0.001 µM was found to be 66.8% and the Emax at 0.01 µM came to 108%.

For the compound `CC(C)c1nc(-c2c(F)cc(OCCCC3CCN(c4cnc(Cl)cn4)CC3)cc2F)no1` [Example 37, 3-(4-(3-(1-(5-chloropyrazin-2-yl)piperidin-4-yl)propoxy)-2,6-difluorophenyl)-5-isopropyl-1,2,4-oxadiazole], the Emax at 0.001 µM stood at 52.1% and the Emax at 0.01 µM amounted to 307%.

Regarding `CCc1cnc(N2CCC(CCCOc3cc(F)c(-c4noc(CCO)n4)c(F)c3)CC2)nc1` [Example 18, 2-(3-(4-(3-(1-(5-ethylpyrimidin-2-yl)piperidin-4-yl)propoxy)-2,6-difluorophenyl)-1,2,4-oxadiazol-5-yl)ethan-1-ol], the Emax at 0.001 µM was 303% and the Emax at 0.01 µM turned out to be 436%.

On to `CCc1cnc(N2CCC(CCCOc3cc(F)c(-c4noc(C(C)(C)C)n4)c(F)c3)CC2)nc1` [Example 16, 5-(tert-butyl)-3-(4-(3-(1-(5-ethylpyrimidin-2-yl)piperidin-4-yl)propoxy)-2,6-difluorophenyl)-1,2,4-oxadiazole], for which the Emax at 0.001 µM stood at 108% and the Emax at 0.01 µM worked out at 321%.

Regarding `CCc1cnc(N2CCC(CCCOc3cc(F)c(C4=NC[C@@H](CO)O4)c(F)c3)CC2)nc1` [Example 8, (S)-(2-(4-(3-(1-(5-ethylpyrimidin-2-yl)piperidin-4-yl)propoxy)-2,6-difluorophenyl)-4,5-dihydrooxazol-5-yl)methanol], the Emax at 0.001 µM stood at 144% and the Emax at 0.01 µM came out at 393%.

Take `Cc1nc(-c2c(F)cc(OCCCC3CCN(c4ncc(-c5noc(CC(C)C)n5)cn4)CC3)cc2F)no1` [Example 30, 3-(2,6-difluoro-4-(3-(1-(5-(5-isobutyl-1,2,4-oxadiazol-3-yl)pyrimidin-2-yl)piperidin-4-yl)propoxy)phenyl)-5-methyl-1,2,4-oxadiazole]: the Emax at 0.001 µM was 103% and the Emax at 0.01 µM turned out to be 172%.

In the case of `CCc1cnc(N2CCC(CCCOc3cc(F)c(-c4noc(C[C@@H](C)O)n4)c(F)c3)CC2)nc1` [Example 20, (R)-1-(3-(4-(3-(1-(5-ethylpyrimidin-2-yl)piperidin-4-yl)propoxy)-2,6-difluorophenyl)-1,2,4-oxadiazol-5-yl) propan-2-ol], the Emax at 0.001 µM was determined as 235% and the Emax at 0.01 µM is 413%.
